In ChEMBL document CHEMBL1148857, “In vitro and in vivo profile of 5-[(4'-trifluoromethyl-biphenyl-2-carbonyl)-amino]-1H-indole-2-carboxylic acid benzylmethyl carbamoylamide (dirlotapide), a novel potent MTP inhibitor for obesity” (Bioorg Med Chem Lett, 2007):
Calls of active or inactive are those of the source. No cut-off for these calls is given here.

Key:
Homo sapiens [1] = organism: Homo sapiens; assay: Inhibition of kainate receptor at 1 uM
[2] = molecular target: Histamine H3 receptor (Homo sapiens) (UniProt Q9Y5N1); assay: Inhibition of histamine H3 receptor at 1 uM
[3] = molecular target: Adenosine receptor A3 (Homo sapiens) (UniProt P0DMS8); assay: Inhibition of adenosine A3 receptor at 1 uM
[4] = molecular target: D(2) dopamine receptor (Homo sapiens) (UniProt P14416); assay: Inhibition of dopamine D2 receptor at 1 uM
Homo sapiens [5] = organism: Homo sapiens; assay: Inhibition of AMPA receptor at 1 uM
[6] = molecular target: 5-hydroxytryptamine receptor 1A (Homo sapiens) (UniProt P08908); assay: Inhibition of 5HT1A receptor at 1 uM
[7] = molecular target: 5-hydroxytryptamine receptor 2A (Homo sapiens) (UniProt P28223); assay: Inhibition of 5HT2A receptor at 1 uM
[8] = molecular target: 5-hydroxytryptamine receptor 4 (Homo sapiens) (UniProt Q13639); assay: Inhibition of 5HT4 receptor at 1 uM
Homo sapiens [9] = organism: Homo sapiens; assay: Inhibition of N-type calcium channel at 1 uM
[10] = Intrinsic clearance in monkey microsomes; format: ADME, Macaca mulatta, Microsome; settings: rhesus monkey
CYP2C19 = assay: Metabolic stability in human liver microsome at 0.5 uM in presence of 200 uM CYP2C19 inhibitor (S)-mephenytoin; format: ADME; settings: liver microsomes, with 200 uM (S)-mephenytoin (CYP2C19 inhibitor)
Plasma = assay: Percentage unbound ligand in rat blood at 1 uM; format: ADME, cell-free
[11] = Ratio of drug level in blood to plasma in rat; format: ADME, cell-free; settings: blood and plasma, read-out: BPR
[12] = Plasma clearance in rat at 0.3 mg/kg, iv; format: ADME, organism-based; set-up: dose 0.3 mg/kg, route intravenous
[13] = Plasma clearance in rat at 5 mg/kg, iv; format: ADME, organism-based; set-up: dose 5 mg/kg, route intravenous
[14] = Half life in Beagle dog at 0.5 mg/kg, iv; format: ADME, organism-based, Canis lupus familiaris; set-up: dose 0.5 mg/kg, route intravenous; settings: in vivo
[15] = Half life in Beagle dog at 1 mg/kg, iv; format: ADME, organism-based, Canis lupus familiaris; set-up: dose 1 mg/kg, route intravenous; settings: in vivo
[16] = AUC (0 to infinity) in monkey at 0.5 mg/kg, iv; format: ADME, organism-based, Macaca mulatta; set-up: time infinity, dose 0.5 mg/kg, route intravenous; settings: rhesus monkey, plasma
[17] = Tmax in Beagle dog at 0.5 mg/kg, po; format: ADME, organism-based, Canis lupus familiaris; set-up: dose 0.5 mg/kg, route oral; settings: in vivo
Cytochrome P450 3A4 = Cytochrome P450 3A4 (Homo sapiens, UniProt P08684); assay: Inhibition of CYP3A4; format: ADME
Sequence of Cytochrome P450 3A4 (P08684 whole entry): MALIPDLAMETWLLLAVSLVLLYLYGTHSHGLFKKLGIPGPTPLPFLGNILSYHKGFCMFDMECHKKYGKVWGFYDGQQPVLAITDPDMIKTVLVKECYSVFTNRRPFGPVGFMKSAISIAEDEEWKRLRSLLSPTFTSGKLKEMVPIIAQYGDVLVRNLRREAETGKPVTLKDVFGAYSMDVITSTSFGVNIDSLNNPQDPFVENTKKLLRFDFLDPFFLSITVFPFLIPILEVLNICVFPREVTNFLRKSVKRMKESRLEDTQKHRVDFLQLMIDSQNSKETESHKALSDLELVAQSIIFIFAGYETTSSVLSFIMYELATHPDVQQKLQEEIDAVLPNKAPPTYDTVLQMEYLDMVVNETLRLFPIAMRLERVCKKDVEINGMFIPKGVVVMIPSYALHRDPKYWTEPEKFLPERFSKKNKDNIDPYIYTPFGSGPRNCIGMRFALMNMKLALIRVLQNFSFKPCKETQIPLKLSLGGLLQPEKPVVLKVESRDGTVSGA

Sequence of Histamine H3 receptor (Homo sapiens) (Q9Y5N1 whole entry): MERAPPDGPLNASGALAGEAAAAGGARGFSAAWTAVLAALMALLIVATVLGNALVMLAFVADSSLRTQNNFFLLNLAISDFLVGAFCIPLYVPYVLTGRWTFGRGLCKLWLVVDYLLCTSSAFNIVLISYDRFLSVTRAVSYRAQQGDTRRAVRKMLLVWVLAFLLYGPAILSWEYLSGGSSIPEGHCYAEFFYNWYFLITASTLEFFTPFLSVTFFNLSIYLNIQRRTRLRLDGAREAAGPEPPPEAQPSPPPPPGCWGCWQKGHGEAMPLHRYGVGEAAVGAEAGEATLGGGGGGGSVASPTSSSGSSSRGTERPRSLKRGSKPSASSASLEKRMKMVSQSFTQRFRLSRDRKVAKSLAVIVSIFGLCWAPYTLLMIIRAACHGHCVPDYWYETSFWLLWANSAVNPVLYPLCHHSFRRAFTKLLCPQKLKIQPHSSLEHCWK
Sequence of 5-hydroxytryptamine receptor 4 (Homo sapiens) (Q13639 whole entry): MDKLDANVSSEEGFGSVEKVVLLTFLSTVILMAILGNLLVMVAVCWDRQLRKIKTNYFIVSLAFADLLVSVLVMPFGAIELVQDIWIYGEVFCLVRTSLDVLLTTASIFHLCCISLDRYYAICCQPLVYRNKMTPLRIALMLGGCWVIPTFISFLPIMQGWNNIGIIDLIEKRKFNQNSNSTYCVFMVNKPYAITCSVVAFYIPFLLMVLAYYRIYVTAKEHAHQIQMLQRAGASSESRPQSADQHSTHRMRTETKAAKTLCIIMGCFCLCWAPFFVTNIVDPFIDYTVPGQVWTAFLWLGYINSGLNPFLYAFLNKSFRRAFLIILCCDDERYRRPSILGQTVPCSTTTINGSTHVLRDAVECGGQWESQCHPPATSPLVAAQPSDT
Sequence of 5-hydroxytryptamine receptor 2A (Homo sapiens) (P28223 whole entry): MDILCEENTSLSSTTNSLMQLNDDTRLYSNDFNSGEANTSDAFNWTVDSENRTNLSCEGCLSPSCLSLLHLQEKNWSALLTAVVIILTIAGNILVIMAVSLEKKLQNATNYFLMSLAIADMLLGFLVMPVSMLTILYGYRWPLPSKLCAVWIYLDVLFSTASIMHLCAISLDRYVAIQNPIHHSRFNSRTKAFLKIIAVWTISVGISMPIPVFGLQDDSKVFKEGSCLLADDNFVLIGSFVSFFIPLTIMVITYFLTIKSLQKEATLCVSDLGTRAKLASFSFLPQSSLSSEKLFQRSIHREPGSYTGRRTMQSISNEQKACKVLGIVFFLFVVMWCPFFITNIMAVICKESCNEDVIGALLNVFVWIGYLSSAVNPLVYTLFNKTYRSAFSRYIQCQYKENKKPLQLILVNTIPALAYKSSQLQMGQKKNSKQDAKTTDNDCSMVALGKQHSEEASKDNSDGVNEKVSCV
Sequence of 5-hydroxytryptamine receptor 1A (Homo sapiens) (P08908 whole entry): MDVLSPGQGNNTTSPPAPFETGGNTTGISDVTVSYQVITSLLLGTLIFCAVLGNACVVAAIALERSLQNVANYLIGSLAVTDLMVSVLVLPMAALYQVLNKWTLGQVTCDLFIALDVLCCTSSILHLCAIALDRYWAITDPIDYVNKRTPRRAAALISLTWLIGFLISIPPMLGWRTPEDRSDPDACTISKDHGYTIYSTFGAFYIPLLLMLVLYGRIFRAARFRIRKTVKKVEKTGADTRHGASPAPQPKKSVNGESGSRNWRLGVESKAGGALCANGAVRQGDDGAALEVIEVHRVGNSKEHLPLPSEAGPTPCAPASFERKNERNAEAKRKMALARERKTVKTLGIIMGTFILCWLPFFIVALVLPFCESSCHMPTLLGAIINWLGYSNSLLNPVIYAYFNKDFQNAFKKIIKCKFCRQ
Sequence of Adenosine receptor A3 (Homo sapiens) (P0DMS8 whole entry): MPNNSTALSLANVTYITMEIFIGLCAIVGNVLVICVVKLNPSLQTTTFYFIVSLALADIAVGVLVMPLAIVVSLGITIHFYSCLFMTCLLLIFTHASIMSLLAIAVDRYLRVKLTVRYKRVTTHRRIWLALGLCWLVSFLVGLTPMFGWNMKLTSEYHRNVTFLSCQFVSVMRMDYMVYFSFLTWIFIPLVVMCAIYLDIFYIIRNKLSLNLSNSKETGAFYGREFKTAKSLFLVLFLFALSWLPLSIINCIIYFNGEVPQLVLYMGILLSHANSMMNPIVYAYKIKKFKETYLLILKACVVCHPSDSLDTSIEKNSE
Sequence of D(2) dopamine receptor (Homo sapiens) (P14416 whole entry): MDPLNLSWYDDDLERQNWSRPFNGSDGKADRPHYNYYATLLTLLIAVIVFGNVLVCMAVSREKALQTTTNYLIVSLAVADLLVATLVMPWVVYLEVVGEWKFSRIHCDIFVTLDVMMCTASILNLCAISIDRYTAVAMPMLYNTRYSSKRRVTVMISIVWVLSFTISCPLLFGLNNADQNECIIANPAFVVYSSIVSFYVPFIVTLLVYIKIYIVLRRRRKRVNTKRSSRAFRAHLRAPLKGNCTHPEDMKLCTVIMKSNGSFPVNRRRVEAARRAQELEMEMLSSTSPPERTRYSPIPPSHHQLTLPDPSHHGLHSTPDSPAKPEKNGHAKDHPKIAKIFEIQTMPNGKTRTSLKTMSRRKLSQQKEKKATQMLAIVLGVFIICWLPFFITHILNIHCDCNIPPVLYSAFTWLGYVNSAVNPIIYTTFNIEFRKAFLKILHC

- Activity (Homo sapiens [1]): inactive
- Activity [2]: inactive
- Activity [3]: inactive
- Activity [4]: inactive
- Activity (Homo sapiens [5]): inactive
- Activity [6]: inactive
- Activity [7]: inactive
- Activity [8]: inactive
- Activity (Homo sapiens [9]): inactive
- CLint scaled [10]: 835 mL/min/kg
- half-life at 0.5 µM (CYP2C19): 1.17 h
- Fu (Plasma): 0.032%
- blood plasma ratio [11]: 0.64
- clearance [12]: 92 mL/min/kg
- clearance [13]: 14 mL/min/kg
- half-life [14]: 5 h
- half-life [15]: 14 h
- AUC(0-inf) [16]: 703 ng·h/mL
- Tmax [17]: 3 h
- IC50 (Cytochrome P450 3A4): > 30 µM
SMILES: CN(Cc1ccccc1)C(=O)[C@@H](NC(=O)c1cc2cc(NC(=O)c3ccccc3-c3ccc(C(F)(F)F)cc3)ccc2n1C)c1ccccc1 [DIRLOTAPIDE]
